The numbers were not newly measured in patent US11896569B2, “Compositions comprising amino acids for use in the treatment of mucositides in neoplasia patients undergoing radiation therapy and/or chemotherapy” (priority 2015, dated 2024), which cites them from elsewhere.

Data set [1] has as its system patients suffering from head and neck cancer.
Data set [2] concerns mucositis. The note with it: 16 grams per day.

Turning to `NC(=O)CC[C@H](N)C(=O)O` [glutamine], the “efficacy for the treatment of mucositis” value in data set [1] (between 10 and 26 grams/day) is listed as “ineffective”. In addition, in data set [1] (daily dose of 30 g), the “severity of mucositis induced by antitumor treatments” value is on record as “significantly decreases the severity of mucositis”. In data set [2], the treatment/prevention of mucositis result is on record as “significant results in the treatment/prevention of mucositis were not observed”.
